Measurements published in the supplement of paper PMC10307832.

What was measured:
Experiment in all cases: relative viability (nuclei count vs DMSO), 5 days (fraction); higher = more cells survive
[1] = compound: Nc1nc2[nH]cc(CCc3ccc(C(=O)N[C@@H](CCC(=O)O)C(=O)O)cc3)c2c(=O)[nH]1 [Pemetrexed] + O=C(c1cc(Cc2n[nH]c(=O)c3ccccc23)ccc1F)N1CCN(C(=O)C2CC2)CC1 [Olaparib] (partner 8 µM)
How it was run: (§1)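 Lung cancer cell lines in 1536-well plates were dosed by pin tool the day after seeding, either with one drug alone or with a fixed anchor-drug dose plus five library-drug doses (not always all listed) in √10 steps. After 5 days, cells were fixed and their nuclei stained in one step (final 0.05% Triton X-100, 1% formaldehyde, 1 ug/ml Hoechst), then counted on 4× images. Relative viability is the nuclei count in treated wells divided by that in vehicle wells. Values are medians of duplicate plates.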

[2] = compound: Nc1nc2[nH]cc(CCc3ccc(C(=O)N[C@@H](CCC(=O)O)C(=O)O)cc3)c2c(=O)[nH]1 [Pemetrexed] + CS(=O)(=O)CCNCc1ccc(-c2ccc3ncnc(Nc4ccc(OCc5cccc(F)c5)c(Cl)c4)c3c2)o1 [Lapatinib] (partner 2 µM)
How it was run: as §1

[3] = compound: Nc1nc2[nH]cc(CCc3ccc(C(=O)N[C@@H](CCC(=O)O)C(=O)O)cc3)c2c(=O)[nH]1 [Pemetrexed] + CCNC(=O)c1noc(-c2cc(C(C)C)c(O)cc2O)c1-c1ccc(CN2CCOCC2)cc1 [Luminespib] (partner 0.01 µM)
How it was run: as §1

[4] = compound: Nc1nc2[nH]cc(CCc3ccc(C(=O)N[C@@H](CCC(=O)O)C(=O)O)cc3)c2c(=O)[nH]1 [Pemetrexed] + C[C@]1(O)C[C@@H](c2nc(-c3ccc4ccc(-c5ccccc5)nc4c3)c3c(N)nccn32)C1 [Linsitinib] (partner 1 µM)
How it was run: as §1

Cell Line | relative viability ([1]; first compound 0.002 µM) | relative viability ([1]; first compound 0.006325 µM) | relative viability ([1]; first compound 0.02 µM) | relative viability ([1]; first compound 0.06325 µM) | relative viability ([1]; first compound 0.2 µM) | relative viability ([2]; first compound 0.002 µM) | relative viability ([2]; first compound 0.006325 µM) | relative viability ([2]; first compound 0.02 µM) | relative viability ([2]; first compound 0.06325 µM) | relative viability ([2]; first compound 0.2 µM) | relative viability ([3]; first compound 0.002 µM) | relative viability ([3]; first compound 0.006325 µM) | relative viability ([3]; first compound 0.02 µM) | relative viability ([3]; first compound 0.06325 µM) | relative viability ([3]; first compound 0.2 µM) | relative viability ([4]; first compound 0.002 µM) | relative viability ([4]; first compound 0.006325 µM) | relative viability ([4]; first compound 0.02 µM) | relative viability ([4]; first compound 0.06325 µM) | relative viability ([4]; first compound 0.2 µM)
NCI-H2085 | 0.755 | 0.74 | 0.802 | 0.806 | 0.789 | 0.717 | 0.692 | 0.88 | 0.801 | 0.768 | 0.386 | 0.304 | 0.449 | 0.414 | 0.427 | 0.872 | 0.828 | 0.881 | 0.942 | 0.97
NCI-H3122 | 0.592 | 0.636 | 0.678 | 0.567 | 0.513 | 1.01 | 1.02 | 1.02 | 0.97 | 0.847 | 0.106 | 0.106 | 0.106 | 0.0892 | 0.0783 | 1.01 | 1 | 0.949 | 1.01 | 0.646
HCC-827 | 0.666 | 0.614 | 0.618 | 0.633 | 0.416 | 0.178 | 0.196 | 0.169 | 0.191 | 0.166 | 0.541 | 0.633 | 0.856 | 0.724 | 0.382 | 0.843 | 0.946 | 1.02 | 0.997 | 0.846
HARA | 0.758 | 0.859 | 0.834 | 0.606 | 0.182 | 0.681 | 0.747 | 1.01 | 0.674 | 0.365 | 0.554 | 0.751 | 1.19 | 0.855 | 0.165 | 0.876 | 0.969 | 0.922 | 0.822 | 0.292
SK-MES-1 | 0.603 | 0.708 | 0.821 | 0.649 | 0.627 | 0.473 | 0.423 | 0.469 | 0.453 | 0.457 | 0.649 | 0.56 | 0.965 | 0.688 | 0.773 | 1.01 | 1.02 | 1.07 | 0.984 | 0.955
HCC-15 | 0.644 | 0.724 | 0.804 | 0.601 | 0.353 | 0.751 | 0.763 | 1 | 0.655 | 0.444 | 0.454 | 0.391 | 0.475 | 0.406 | 0.23 | 0.857 | 0.773 | 0.922 | 0.753 | 0.518
ABC-1 | 0.839 | 0.867 | 0.985 | 0.875 | 0.865 | 1.35 | 1.16 | 1.25 | 1.05 | 1.16 | – | 0.521 | 0.709 | 0.777 | 0.637 | 0.904 | 0.804 | 0.828 | 0.753 | 0.713
EPLC-272H | 0.592 | 0.835 | 1.01 | 0.564 | 0.271 | 0.806 | 1.04 | 1.16 | 0.972 | 1.04 | 0.265 | 0.153 | 0.27 | 0.321 | 0.536 | 1.06 | 1.07 | 1.19 | 0.959 | 1.12
